Experimental data: paper PMC9000710, “Synthesis and Hemostatic Activity of New Amide Derivatives” (Molecules, 2022)

Columns and labels:
human blood plasma [1] = assay: Clot formation and fibrinolysis (CFF) assay; format: biochemical; conditions: for Amax (maximum of fibrin clot absorbance at 360 nm) / VmaxC (of Fibrin Polymerization) / VmaxF (of Fibrin Clot Lysis): control plasma assumed as 100%, mean ± SD, n = 5–7
Excerpt: The CFF assay enables analysis of both the blood plasma coagulation process and fibrinolysis efficiency. The thrombin enzyme in the reagent mixture initiates blood plasma fibrinogen polymerization, leading to an increase in absorbance in the sample until the maximal absorbance (Amax) is attained. The fibrinolytic activity of blood plasma is induced by the tissue-type plasminogen activator (t-PA). The activation of fibrinolysis in the tested samples leads to fibrin clot degradation and decreases the absorbance to the baseline.
Figure 11 An exemplary curve of blood plasma coagulation and clot lysis recorded during the clot formation and fibrinolysis (CFF) assay. The first step in the CFF test involves activation of the blood plasma coagulation cascade and fibrin clot formation (1). It is characterized by the maximal velocity of the fibrin polymerization parameter (VmaxC). The maximal absorbance (Amax) peak corresponds to the fibrin stabilization phase and is an indicator of fibrin clot thickness (2). The third step of the CFF assay covers the activation of fibrinolytic mechanisms and fibrin clot degradation (3) and is described by the maximal velocity of clot lysis (VmaxF).
Thrombin was purchased from BioMed (Lublin, Poland). A tissue-type plasminogen activator (Actilyse®) was purchased from Boehringer Ingelheim, Ingelheim am Rhein, Germany. Kinetic measurements were executed using a SpectrostarNano microplate spectrophotometer (BMG LabTech, Ortenberg, Germany).
Measurements were performed using a kinetic model, as described in our previous work. Briefly, blood plasma was preincubated with the examined substances (at final concentrations of 10, 25, and 50 mg/L) for 15 min at 37 °C. Then, 100 μL of blood plasma was added to microtiter plate wells, which was followed by 200 μL of the reagent mixture (0.75 U/mL thrombin, 225 ng/mL t-PA and 7.5 mM CaCl2) suspended in tris-buffered saline (0.05 M TBS, 0.9% NaCl; pH 7.4). Measurements of absorbance changes were started immediately and continued for 60 min at 37 °C, λ = 360 nm. The following parameters were used to determine the effects of the examined substances on the coagulation and fibrinolytic properties of the blood plasma: the maximal velocity of fibrinogen polymerization (VmaxC), which is an indicator of the plasma coagulation efficiency; the maximal absorbance (Amax), which is an indicator of the fibrin clot stabilization and its thickness; the maximal velocity of clot lysis (VmaxF), which is an indicator of blood plasma fibrinolytic activity.

human blood plasma [2] = assay: Activated partial thromboplastin time (aPTT) clotting assay; format: biochemical
Method: (§1) Human blood plasma was isolated from fresh buffy coats (collected onto the citrate-dextrose solution—ACD) purchased from the Regional Centre of Blood Donation and Blood Treatment in Lodz, Poland. In the isolation procedure, the buffy coats (60 mL units) were divided into volumes of 10 mL and centrifuged (4000 rpm/15 min) in 15 mL tubes. Next, 1 mL solutions of each amide 1–8 were prepared in distilled water at concentrations of 10, 25, and 50 mg/L. Then, 450 μL of plasma and 50 μL of each amide at the tested concentrations were placed into 1.5 mL vials. The vials were vortexed (Vortex Biosan V-1 plus), incubated at 37 °C on a thermoblock (Dry Block Thermostat Biosan TDB-120), and analyzed using a Kselmed K-3002 OPTIC coagulometer (Grudziądz, Poland), based on the manufacturer’s protocols (described below). The control sample was native blood plasma, untreated with any of the examined substances.
Fifty microliters of control plasma and plasma samples treated with the amides were transferred to measuring cuvettes and placed in the thermoblock module (37 °C) of the coagulometer (KSELMED, K-3002 Optic). Then, 50 μL of Dia-APTT reagent (DIAGON Kft. Hungary; cat. no. 72048) was added. The mixture was incubated for 180 s at 37 °C. Finally, 50 μL of reagent Dia-CaCl2 (DIAGON Kft. Hungary; cat. no. 41192) was added. Measurements were started immediately.

[3] = Hemolysis assay (stability of erythrocytes); format: cell-based, human; conditions: male, human, heparinized whole blood diluted with saline (erythrocytes); for hemolysis at 45 min, 5 mg/L / hemolysis at 120 min, 5 mg/L / hemolysis at 240 min, 5 mg/L: c 5 mg/L; for hemolysis at 45 min, 50 mg/L / hemolysis at 120 min, 50 mg/L / hemolysis at 240 min, 50 mg/L: c 50 mg/L; for hemolysis at 45 min, 500 mg/L / hemolysis at 120 min, 500 mg/L / hemolysis at 240 min, 500 mg/L: c 500 mg/L
Method: Heparinized whole blood was used from a healthy volunteer. The whole blood (10 mL) was diluted with saline solution (90 mL). For each UV-Vis measurement, 2.5 mL of diluted blood was used. For each blood sample, 1 mL of a saline solution containing hydrochlorides 1–8 at concentrations of 5, 50, and 500 mg/L was added. As a control were used blood samples with the addition of 1% solution of DMSO in saline and 1% solution of SDS in saline. In all cases, the measurements were repeated twice for each concentration. […] The cells were centrifuged, and the absorbance of the supernatant, which contained plasma and lysed erythrocytes, was measured at 540 nm. The percentage of lysis was calculated from a standard curve of lysed erythrocytes treated with SDS [52].

human blood plasma [4] = assay: Prothrombin time (PT) clotting assay; format: biochemical
Method: as §1
Fifty microliters of control plasma and plasma samples treated with the amides were transferred to measuring cuvettes and placed in the thermoblock module (37 °C) of a coagulometer (KSELMED, K-3002 Optic). Then, 100 μL of Dia-PT reagent (DIAGON Kft. Hungary; cat. no. 81100) was added. Measurements were started immediately.

human blood plasma [5] = assay: Thrombin time (TT) clotting assay; format: biochemical
Method: as §1
Both 100 μL of control plasma and plasma samples treated with the amides were transferred to measuring cuvettes, which were placed in the thermoblock module (37 °C) of the coagulometer (KSELMED K-3002 Optic). Then, 100 μL of thrombin solution (4.5 U/mL, in 0.9% NaCl; Biomed, Lublin, Poland) was added to the cuvette. Measurements were started immediately.

SMILES	Amax (maximum of fibrin clot absorbance at 360 nm) (human blood plasma [1]; 10 mg/L)	VmaxC (of Fibrin Polymerization) (human blood plasma [1]; 10 mg/L)	VmaxF (of Fibrin Clot Lysis) (human blood plasma [1]; 10 mg/L)	Amax (maximum of fibrin clot absorbance at 360 nm) (human blood plasma [1]; 25 mg/L)	VmaxC (of Fibrin Polymerization) (human blood plasma [1]; 25 mg/L)	VmaxF (of Fibrin Clot Lysis) (human blood plasma [1]; 25 mg/L)	Amax (maximum of fibrin clot absorbance at 360 nm) (human blood plasma [1]; 50 mg/L)	VmaxC (of Fibrin Polymerization) (human blood plasma [1]; 50 mg/L)	VmaxF (of Fibrin Clot Lysis) (human blood plasma [1]; 50 mg/L)	aPTT Time [% of Control] (human blood plasma [2]; c 10 mg/L)	aPTT Time [% of Control] (human blood plasma [2]; c 25 mg/L)	aPTT Time [% of Control] (human blood plasma [2]; c 50 mg/L)	hemolysis at 45 min, 5 mg/L [3]	hemolysis at 120 min, 5 mg/L [3]	hemolysis at 240 min, 5 mg/L [3]	hemolysis at 45 min, 50 mg/L [3]	hemolysis at 120 min, 50 mg/L [3]	hemolysis at 240 min, 50 mg/L [3]	hemolysis at 45 min, 500 mg/L [3]	hemolysis at 120 min, 500 mg/L [3]	further results
Cl.NCCCCCC(=O)NCc1ccc(C(=O)O)cc1 [Amide 2, 4-((6-Aminohexanamido)methyl)benzoic acid hydrochloride]	105.29 ± 6.41%	103.26 ± 3.98%	75.81 ± 17.04 %	110.74 ± 4.86 %	106.30 ± 3.60 %	79.60 ± 10.55 %	110.77 ± 9.85 %	105.59 ± 3.74 %	85.69 ± 8.80 %	98.5 ± 8.0 % of Control	101.0 ± 13.1 % of Control	101.9 ± 14.0 % of Control	0.41%	0.21%	0.65%	0.11%	0.74%	0.3%	1.03%	0.21%	effect on fibrin polymerization (VmaxC) in words (human blood plasma [1]; tested at 10, 25, 50 mg/L): Mild pro-coagulant effects; hemolysis at 240 min, 500 mg/L [3]: 0.43%; melting point: 199 to 201 °C; PT Time [% of Control] (human blood plasma [4]; c 10 mg/L): 97.0 ± 4.8 % of Control; PT Time [% of Control] (human blood plasma [4]; c 25 mg/L): 96.1 ± 2.2 % of Control; PT Time [% of Control] (human blood plasma [4]; c 50 mg/L): 95.5 ± 2.5 % of Control; prothrombin time, effect versus control in words (human blood plasma [4]; two higher concentrations (25 and 50 mg/L)): significantly decreased; TT Time [% of Control] (human blood plasma [5]; c 10 mg/L): 99.0 ± 1.8 % of Control; TT Time [% of Control] (human blood plasma [5]; c 25 mg/L): 98.9 ± 4.7 % of Control; TT Time [% of Control] (human blood plasma [5]; c 50 mg/L): 95.9 ± 6.8 % of Control
Cl.NCC(=O)NCc1ccc(C(=O)O)cc1 [Amide 6, 4-((2-Aminoacetamido)methyl)benzoic acid hydrochloride]	105.45 ± 5.46%	104.68 ± 3.05 %	98.41 ± 14.71%	102.41 ± 5.56%	103.10 ± 6.82%	100.06 ± 21.96%	102.15 ± 2.46%	101.11 ± 4.77%	91.08 ± 15.49%	96.1 ± 4.2 % of Control	97.0 ± 3.5 % of Control	98.3 ± 3.6 % of Control	0.38%	0.56%	0.19%	0%	0.11%	0.2%	0.41%	0.68%	hemolysis at 240 min, 500 mg/L [3]: 0.31%; melting point: 235 to 238 °C; PT Time [% of Control] (human blood plasma [4]; c 10 mg/L): 96.1 ± 4.4 % of Control; PT Time [% of Control] (human blood plasma [4]; c 25 mg/L): 95.8 ± 4.3 % of Control; PT Time [% of Control] (human blood plasma [4]; c 50 mg/L): 93.5 ± 7.1 % of Control; TT, effect versus control in words (human blood plasma [5]; all used concentrations (10, 25, 50 mg/L)): shorter TT than the control sample; TT Time [% of Control] (human blood plasma [5]; c 10 mg/L): 92.5 ± 3.0 % of Control; TT Time [% of Control] (human blood plasma [5]; c 25 mg/L): 92.3 ± 2.5 % of Control; TT Time [% of Control] (human blood plasma [5]; c 50 mg/L): 92.8 ± 4.2 % of Control
